Source: patent US10597375B2, “Halogen-substituted heterocyclic compound” (UBE INDUSTRIES, LTD., priority 2012, dated 2020)

Assays:
[1] = tested on: LPA-induced histamine release; assay: LPA-induced histamine release test in mouse; assay type: in vivo; conditions: male CD1 mice; oral dose of 10 mg/kg; LPA 300 μg/mouse via tail vein 4 hours after administration; blood 2 minutes after LPA; read-out: efficacy rate (rate of individuals which showed the inhibition rate of 80% or more of plasma histamine)
Description: LPA-Induced Histamine Release Test in Mouse
LPA-induced histamine release test in mouse was carried out according to a method by Swaney et al. (The Journal of Pharmacology and Experimental Therapeutics, 336 (2011), pages 693-700). The test compound was suspended in 0.5% methylcellulose solution (133-14255, Wako), and orally administered to male CD1 mice (body weight: 30 to 40 g, supplied by Charles River Laboratories Japan) at a dose of 10 mL/kg. 4 hours after administration, LPA (857130P, Avanti) dissolved in a 0.1% BSA-containing PBS was administered via the tail vein (300 μg/mouse). Immediately, the mouse was anesthetized with isoflurane, and blood was collected via a vein 2 minutes after the administration of LPA. The blood was put into a test tube containing EDTA, and centrifuged at 4° C., 2,000×g, for 10 minutes to obtain the plasma.
The histamine concentration in the plasma was measured by EIA kit (62HTMPEB, Cisbio Bioassays).

[2] = tested on: A2058 human melanoma cells; assay: Cell migration test (LPA-induced, Chemo-Tx); assay type: cell-based; conditions: LPA 100 nM, 3 hours, read-out: IC50: concentration of the test compound which inhibits the cell migration activity of LPA by 50%
Description: The cell migration test was carried out using Chemo-Tx (registered trademark) (116-8, Neuro Probe). A2058 human melanoma cells (obtained from European Collection of Cell Culture) were cultured in a serum-free EMEM medium for 24 hours, and then re-suspended in a 0.1% BSA-containing DMEM medium to obtain a cell suspension. The test compound dissolved in DMSO in various concentration was each added to the cell suspension, and the suspension was cultured at 37° C. for 15 minutes (the final DMSO concentration of 0.5%). LPA dissolved in a 0.1% BSA-containing DMEM medium (the final concentration of 100 nM) was added to Chemo-Tx 96 well plate, and a Chemo-Tx filter which had been coated with 0.001% Fibronectin on the both surfaces was put on the plate. The suspension of cultured cells (25,000 cells) was added onto the upper surface of the filter and further cultured at 37° C. for 3 hours, and the cells on the upper surface of the filter were removed. After the filter was removed and dried, the cells which had migrated to the lower surface of the filter were stained using Diff-Quik stain (16920, Sysmex). The absorbance of the filter (570 nm) was measured and the concentration of the test compound which inhibits the cell migration activity of LPA by 50%, (1050) was determined by non-linear regression analysis using EXSAS (version 7.6.0, Arm Systex).

SMILES | IC50 [2] [nM] | responders at 10 mg/kg [1] [%]
COc1cc(-c2sc(Cl)cc2NC(=O)O[C@H](C)c2cccc(F)c2)ccc1-c1ccc(C2(C(=O)O)CC2)cc1 [I-358, (R)-1-{4′-[5-Chloro-3-({[1-(3-fluorophenyl)ethoxy]carbonyl}amino)thiophen-2-yl]-2′-methoxy-[1,1′-biphenyl]-4-yl}cyclopropanecarboxylic acid] | ≤ 200 | ≥ 50
COc1cc(-c2sc(Cl)cc2NC(=O)O[C@H](C)c2ccc(F)cc2)ccc1-c1ccc(C2(C(=O)O)CC2)cc1 [I-362, (R)-1-{4′-[5-Chloro-3-({[1-(4-fluorophenyl)ethoxy]carbonyl}amino)thiophen-2-yl]-2′-methoxy-[1,1′-biphenyl]-4-yl}cyclopropanecarboxylic acid] | ≤ 200 | ≥ 50
COc1cc(-c2sc(Cl)cc2NC(=O)O[C@H](C)c2ccccc2Cl)ccc1-c1ccc(C2(C(=O)O)CC2)cc1 [I-366, (R)-1-{4′-[5-Chloro-3-({[1-(2-chlorophenyl)ethoxy]carbonyl}amino)thiophen-2-yl]-2′-methoxy-[1,1′-biphenyl]-4-yl}cyclopropanecarboxylic acid] | ≤ 200 | ≥ 50
COc1cc(-c2sc(Cl)cc2NC(=O)O[C@H](C)c2ccc(Cl)cc2)ccc1-c1ccc(C2(C(=O)O)CC2)cc1 [I-370, (R)-1-{4′-[5-Chloro-3-({[1-(4-chlorophenyl)ethoxy]carbonyl}amino)thiophen-2-yl]-2′-methoxy-[1,1′-biphenyl]-4-yl}cyclopropanecarboxylic acid] | ≤ 200 | ≥ 50
COc1cc(-c2sc(Cl)cc2NC(=O)O[C@H](C)c2ccccc2C)ccc1-c1ccc(C2(C(=O)O)CC2)cc1 [I-374, (R)-1-{4′-[5-Chloro-3-({[1-(o-tolyl)ethoxy]carbonyl}amino)thiophen-2-yl]-2′-methoxy-[1,1′-biphenyl]-4-yl}cyclopropanecarboxylic acid] | ≤ 200 | ≥ 50
COc1cc(-c2sc(Cl)cc2NC(=O)O[C@H](C)c2ccc(F)cc2F)ccc1-c1ccc(C2(C(=O)O)CC2)cc1 [I-378, (R)-1-{4′-[5-Chloro-3-({[1-(2,4-difluorophenyl)ethoxy]carbonyl}amino)thiophen-2-yl]-2′-methoxy-[1,1′-biphenyl]-4-yl}cyclopropanecarboxylic acid] | ≤ 200 | ≥ 50
COc1cc(-c2sc(Cl)cc2NC(=O)O[C@H](C)c2cc(F)ccc2F)ccc1-c1ccc(C2(C(=O)O)CC2)cc1 [I-388, (R)-1-{4′-[5-Chloro-3-({[1-(2,5-difluorophenyl)ethoxy]carbonyl}amino)thiophen-2-yl]-2′-methoxy-[1,1′-biphenyl]-4-yl}cyclopropanecarboxylic acid] | ≤ 200 | ≥ 50
COc1cc(-c2sc(F)cc2NC(=O)O[C@H](C)c2ccccc2)ccc1-c1ccc(C2(C(=O)O)CC2)cc1 [I-420] | ≤ 200 | ≥ 50
COc1cc(-c2sc(F)cc2NC(=O)O[C@H](C)c2ccccc2F)ccc1-c1ccc(C2(C(=O)O)CC2)cc1 [I-424, (R)-1-{4′-[5-Fluoro-3-({[1-(2-fluorophenyl)ethoxy]carbonyl}amino)thiophen-2-yl]-2′-methoxy-[1,1′-biphenyl]-4-yl}cyclopropanecarboxylic acid] | ≤ 200 | ≥ 50
COc1cc(-c2sc(F)cc2NC(=O)O[C@H](C)c2cccc(F)c2)ccc1-c1ccc(C2(C(=O)O)CC2)cc1 [I-428, (R)-1-{4′-[5-Fluoro-3-({[1-(3-fluorophenyl)ethoxy]carbonyl}amino)thiophen-2-yl]-2′-methoxy-[1,1′-biphenyl]-4-yl}cyclopropanecarboxylic acid] | ≤ 200 | ≥ 50
COc1cc(-c2sc(F)cc2NC(=O)O[C@H](C)c2ccc(F)cc2)ccc1-c1ccc(C2(C(=O)O)CC2)cc1 [I-432, (R)-1-{4′-[5-Fluoro-3-({[1-(4-fluorophenyl)ethoxy]carbonyl}amino)thiophen-2-yl]-2′-methoxy-[1,1′-biphenyl]-4-yl}cyclopropanecarboxylic acid] | ≤ 200 | ≥ 50
COc1cc(-c2sc(F)cc2NC(=O)O[C@H](C)c2cccs2)ccc1-c1ccc(C2(C(=O)O)CC2)cc1 [I-840, (R)-1-{4′-[5-Fluoro-3-({[1-(thiophen-2-yl)ethoxy]carbonyl}amino)thiophen-2-yl]-2′-methoxy-[1,1′-biphenyl]-4-yl}cyclopropanecarboxylic acid] | ≤ 200 | –

Second part, led by results:

IC50 [2] [nM] | SMILES | responders at 10 mg/kg [1] [%]
≤ 200 | CC(OC(=O)Nc1cc(F)sc1-c1ccc(-c2ccc(C3(C(=O)O)CC3)cc2)cc1)c1ccsc1 (racemic) [I-639, (RS)-1-{4′-[5-Fluoro-3-({[1-(thiophen-3-yl)ethoxy]carbonyl}amino)thiophen-2-yl]-[1,1′-biphenyl]-4-yl}cyclopropanecarboxylic acid] | ≥ 50
≤ 200 | Cc1cscc1C(C)OC(=O)Nc1cc(F)sc1-c1ccc(-c2ccc(C3(C(=O)O)CC3)cc2)cc1 (racemic) [I-649, (RS)-1-{4′-[5-Fluoro-3-({[1-(4-methylthiophen-3-yl)ethoxy]carbonyl}amino)thiophen-2-yl]-[1,1′-biphenyl]-4-yl}cyclopropanecarboxylic acid] | ≥ 50
≤ 200 | CC(OC(=O)Nc1cc(F)sc1-c1ccc(-c2ccc(C3(C(=O)O)CC3)cc2)cc1)c1cscc1Cl (racemic) [I-657, (RS)-1-{4′-[3-({[1-(4-Chlorothiophen-3-yl)ethoxy]carbonyl}amino)-5-fluorothiophen-2-yl]-[1,1′-biphenyl]-4-yl}cyclopropanecarboxylic acid] | ≥ 50
≤ 200 | COc1cc(-c2sc(F)cc2NC(=O)OC(C)c2ccsc2)ccc1-c1ccc(C2(C(=O)O)CC2)cc1 (racemic) [I-811, (RS)-1-{4′-[5-Fluoro-3-({[1-(thiophen-3-yl)ethoxy]carbonyl}amino)thiophen-2-yl]-2′-methoxy-[1,1′-biphenyl]-4-yl}cyclopropanecarboxylic acid] | ≥ 50
≤ 200 | C[C@@H](OC(=O)Nc1cc(Cl)sc1-c1ccc(-c2ccc(C3(C(=O)O)CC3)cc2)cc1)c1ccc(F)cc1F [I-64, (R)-1-{4′-[5-Chloro-3-({[1-(2,4-difluorophenyl)ethoxy]carbonyl}amino)thiophen-2-yl]-[1,1′-biphenyl]-4-yl}cyclopropanecarboxylic acid] | ≥ 50
≤ 200 | C[C@@H](OC(=O)Nc1cc(Cl)sc1-c1ccc(-c2ccc(C3(C(=O)O)CC3)cc2)cc1)c1cc(F)ccc1F [I-68, (R)-1-{4′-[5-Chloro-3-({[1-(2,5-difluorophenyl)ethoxy]carbonyl}amino)thiophen-2-yl]-[1,1′-biphenyl]-4-yl}cyclopropanecarboxylic acid] | ≥ 50
≤ 200 | Cc1ccccc1[C@@H](C)OC(=O)Nc1cc(F)sc1-c1ccc(-c2ccc(C3(C(=O)O)CC3)cc2)cc1 [I-136, (R)-1-{4′-[5-Fluoro-3-({[1-(o-tolyl)ethoxy]carbonyl}amino)thiophen-2-yl]-[1,1′-biphenyl]-4-yl}cyclopropanecarboxylic acid] | ≥ 50
≤ 200 | C[C@@H](OC(=O)Nc1cc(Cl)sc1-c1ccc(-c2ccc(C3(C(=O)O)CC3)cc2)nc1)c1ccccc1 [I-196, (R)-1-{4-[5(5-Chloro-3-{[(1-phenylethoxy)carbonyl]amino}thiophen-2-yl)pyridine-2-yl]phenyl}cyclopropanecarboxylic acid] | ≥ 50
≤ 200 | COc1cc(-c2sc(Cl)cc2NC(=O)O[C@H](C)c2ccccc2)ccc1-c1ccc(C2(C(=O)O)CC2)cc1 [I-350, (R)-1-[4′-(5-Chloro-3-{[(1-phenylethoxy)carbonyl]amino}thiophen-2-yl)-2′-methoxy-[1,1′-biphenyl]-4-yl]cyclopropanecarboxylic acid] | ≥ 50
≤ 200 | COc1cc(-c2sc(Cl)cc2NC(=O)O[C@H](C)c2ccccc2F)ccc1-c1ccc(C2(C(=O)O)CC2)cc1 [I-354, (R)-1-{4′-[5-Chloro-3-({[1-(2-fluorophenyl)ethoxy]carbonyl}amino)thiophen-2-yl]-2′-methoxy-[1,1′-biphenyl]-4-yl}cyclopropanecarboxylic acid] | ≥ 50
